pIC50: −log10 of the molar value.
test system: HeLa cells; experiment: Measurement of the cell cycle inhibition in HeLa cells; assay type: cell-based; conditions: HeLa B cells, 20 h incubation with compound; FACS ratio G0/G1 to G2/M vs DMSO; concentration at which 50% of cells are in cell cycle arrest
Method: Measurement of the Cell Cycle Inhibition in HeLa Cells—Test Procedure:
HeLa B cells are grown in DMEM (Life Technologies Cat No 21969-035) supplemented with 10% Fetal Calf Serum (FCS, Life Technologies Cat No 10270-106) in 180 cm^2 Flasks at 37° C., 92% humidity and 7% CO2.
Cells are seeded at 5×10^4 cells per well in a 24-well plate. Twenty hours later the compounds are added such that the final concentration is 1×10^−6, 3.3×10^−7, 1.1×10^−7, 3.7×10^−8, 1.2×10^−8 and 1×10^−9 M in a final volume of 500 μl. DMSO alone is added to 6 wells as a control. Cells are incubated with the compounds as above for 20 h. Then cells are observed under the microscope to check for cell death, and the 24-well plate is then centrifuged at 1200 rpm for 5 min at 20° C., acceleration position 7 and break position 5 (Eppendorf centrifuge 5804R).
The supernatant is removed and the cells lysed with 0.5 ml RNase Buffer (10 mM NaCitrate, 0.1% Nonidet NP40, 50 μg/ml RNase, 10 μg/ml Propidium iodide) per well. The plates are then incubated for at least 30 min in the dark at RT and the samples then transferred to FACS tubes. Samples are measured in a FACS machine (Beckton Dickinson) at the following settings:
Instrument Settings of the FACS Calibur:
The ratio of cells in G0/G1-phase to G2/M phase is calculated and compared to the value for the controls (DMSO) only. Results are given in table 2 as the IC50 value calculated from the concentration curve plotted against the cell cycle ratio and indicate the compound concentration at which 50% of cells are in cell cycle arrest after treatment with the compound.

SMILES | pIC50
CON=C(N)c1nc(Cl)c(-c2ccc(F)cc2Cl)c(N2CCCC2C)n1 (stereo not shown) [Example 170] | 7.23
CC1CCCCN1c1nc(-n2cccn2)nc(Cl)c1-c1c(F)cccc1F (stereo not shown) [Example 125] | 7.42
CCC(C)Nc1nc(C(N)=NO)nc(Cl)c1-c1c(F)cc(F)cc1F (stereo not shown) [Example 146] | 7.49
Cc1ccc(-c2c(Cl)nc(-n3cccn3)nc2N2CCCC(C)C2)c(F)c1 (stereo not shown) [Example 99] | 7.41
C[C@H](Nc1nc(-n2cc(Cl)cn2)nc(Cl)c1-c1c(F)cc(F)cc1F)C(F)(F)F [Example 35] | 7.44
NC(=NO)c1nc(Cl)c(-c2c(F)cc(F)cc2F)c(NCC(F)(F)F)n1 [Example 173] | 7.74
CC(Nc1nc(-c2cccnn2)nc(Cl)c1-c1c(F)cc(F)cc1F)C(F)(F)F (stereo not shown) [Example 78] | 7.68
COc1cc(F)c(-c2c(Cl)nc(-c3ccccn3)nc2NC(C)C)c(F)c1 [Example 62] | 7.64
C[C@H](Nc1nc(C(N)=NO)nc(Cl)c1-c1c(F)cccc1F)C(F)(F)F [Example 175] | 7.74
CC1CCCN1c1nc(-n2cncn2)nc(Cl)c1-c1c(F)cc(F)cc1F (stereo not shown) [Example 75] | 7.85
C[C@H](Nc1nc(C(N)=O)nc(Cl)c1-c1c(F)cc(F)cc1F)C(F)(F)F [Example 159] | 7.64
Fc1cc(F)c(-c2c(Cl)nc(-n3cncn3)nc2N2CCCCC2)c(F)c1 [Example 52] | 7.66
C[C@H](Nc1nc(-n2cccn2)nc(F)c1-c1c(F)cc(F)cc1F)C(F)(F)F [Example 167] | 7.70
CON=C(N)c1nc(Cl)c(-c2c(F)cc(F)cc2F)c(N[C@H](C)C(F)(F)F)n1 [Example 130] | 8.74
CC(C)[C@@H](C)Nc1nc(-n2cncn2)nc(Cl)c1-c1c(F)cc(F)cc1F [Example 60] | 7.72
C=CCN(CC=C)c1nc(-n2cc(Br)cn2)nc(Cl)c1-c1ccc(F)cc1Cl [Example 134] | 7.30
CC(CO)Nc1nc(-n2cc(Br)cn2)nc(Cl)c1-c1c(F)cc(F)cc1F (stereo not shown) [Example 124] | 7.35
CCC(C)Nc1nc(-n2cc(C#N)cn2)nc(Cl)c1-c1c(F)cccc1Cl (stereo not shown) [Example 163] | 7.52
Cc1nn(-c2nc(Cl)c(-c3c(F)cc(F)cc3F)c(N[C@@H](C)C(F)(F)F)n2)c(C)c1Cl [Example 3] | 7.51
COc1cc(F)c(-c2c(Cl)nc(C(N)=O)nc2N[C@@H](C)C(F)(F)F)c(F)c1 [Example 189] | 7.52
CCC(C)Nc1nc(ON=C(C)C)nc(Cl)c1-c1c(C)cccc1F (stereo not shown) [Example 112] | 7.68

SMILES | pIC50
CC1CCCN1c1nc(-n2cccn2)nc(Cl)c1-c1c(F)cccc1F (stereo not shown) [Example 140] | 7.70
CC[C@H](C)Nc1nc(C(N)=NO)nc(Cl)c1-c1ccc(F)cc1Cl [Example 168] | 7.44
CC(C)Nc1nc(-c2cnccn2)nc(Cl)c1-c1c(F)cccc1Cl [Example 25] | 7.62
CCOC(=O)c1cc(C)nn1-c1nc(Cl)c(-c2c(F)cc(F)cc2F)c(N[C@H](C)C(C)C)n1 [Example 88] | 7.36
C=CCCN(C)c1nc(-n2ccc(N)n2)nc(Cl)c1-c1c(F)cccc1Cl [Example 131] | 7.32
C=CCN(C)c1nc(-n2cccn2)nc(Cl)c1-c1c(F)cc(F)cc1F [Example 142] | 7.41
CON=C(N)c1nc(Cl)c(-c2ccc(OC)cc2Cl)c(N[C@@H](C)C(C)C)n1 [Example 186] | 7.48
Cc1ccn(-c2nc(Cl)c(-c3c(F)cccc3Cl)c(NC(C)C)n2)n1 [Example 20] | 7.41
C=CCCN(C)c1nc(-n2cccn2)nc(Cl)c1-c1ccc(F)cc1Cl [Example 132] | 7.34
Cc1ccn(-c2nc(Cl)c(-c3c(F)cc(F)cc3F)c(N[C@H](C)C(C)C)n2)n1 [Example 92] | 7.59
Cc1ccn(-c2nc(Cl)c(-c3c(F)cc(F)cc3F)c(NC(C)C)n2)n1 [Example 18] | 7.41
C[C@H](Nc1nc(-c2ccccn2)nc(Cl)c1-c1c(F)cc(F)cc1F)C(F)(F)F [Example 12] | 8.16
Cc1ccc(-c2c(Cl)nc(-n3cccn3)nc2NCC(F)(F)F)c(F)c1 [Example 108] | 7.80
C[C@H](Nc1nc(-n2cc(C#N)c(N)n2)nc(Cl)c1-c1c(F)cccc1Cl)C(F)(F)F [Example 187] | 7.41
CC1CCCN(c2nc(-n3ccnn3)nc(Cl)c2-c2c(F)cc(F)cc2F)C1 (stereo not shown) [Example 42] | 7.74
CC(C)[C@@H](C)Nc1nc(-n2cccn2)nc(Cl)c1-c1c(F)cccc1Cl [Example 46] | 7.42
Cc1cnn(-c2nc(Cl)c(-c3c(F)cc(F)cc3F)c(NC(C)C)n2)c1 [Example 24] | 7.30
CON=C(N)c1nc(Cl)c(-c2ccc(OC)cc2Cl)c(N[C@@H](C)C(F)(F)F)n1 [Example 216] | 7.57
CCCNc1nc(-n2cccn2)nc(Cl)c1-c1ccc(C)cc1F [Example 103] | 7.41
C[C@H](Nc1nc(C(N)=NO)nc(Cl)c1-c1cc(F)ccc1Cl)C(F)(F)F [Example 220] | 7.44
CC1CCCCN1c1nc(-n2cccn2)nc(Cl)c1-c1c(F)cc(F)cc1F (stereo not shown) [Example 96] | 7.54

SMILES | pIC50
Fc1cc(F)c(-c2c(Cl)nc(-n3cccn3)nc2N2CCCCC2)c(F)c1 [Example 51] | 8.19
Cc1nc(C)n(-c2nc(Cl)c(-c3c(F)cccc3F)c(N3CCC(C)CC3)n2)n1 [Example 118] | 7.49
Cc1cnn(-c2nc(Cl)c(-c3c(F)cc(F)cc3F)c(N3CCCCC3)n2)c1 [Example 55] | 7.59
CC1CCN(c2nc(-n3cncn3)nc(Cl)c2-c2c(F)cc(F)cc2F)CC1 [Example 28] | 7.77
CC(C)[C@H](C)Nc1nc(C(N)=NO)nc(Cl)c1-c1c(F)cccc1F [Example 195] | 7.70
Cc1ccnc(-c2nc(Cl)c(-c3c(F)cc(F)cc3F)c(N[C@@H](C)C(F)(F)F)n2)c1 [Example 14] | 7.85
COc1cc(F)c(-c2c(Cl)nc(C(N)=NO)nc2N2CCC(C)CC2)c(F)c1 [Example 190] | 7.59
CCCNc1nc(-n2nc(C)cc2C(=O)OCC)nc(Cl)c1-c1ccc(C)cc1F [Example 160] | 7.51
C[C@H](Nc1nc(C(N)=S)nc(Cl)c1-c1c(F)cccc1Cl)C(F)(F)F [Example 169] | 7.39
C[C@H](Nc1nc(-n2cncn2)nc(Cl)c1-c1c(F)cc(F)cc1F)C(F)(F)F [Example 8] | 7.89
C=CCN(C)c1nc(-n2ccnn2)nc(Cl)c1-c1c(F)cc(F)cc1F [Example 206] | 7.70
COc1cc(F)c(-c2c(Cl)nc(-c3ccccn3)nc2N2CCC(C)CC2)c(F)c1 [Example 61] | 7.68
Cc1nc(-c2nc(Cl)c(-c3c(F)cc(F)cc3F)c(N[C@H](C)C(C)C)n2)cs1 [Example 70] | 7.46
COc1cc(F)c(-c2c(Cl)nc(C(N)=NO)nc2N[C@@H](C)C(F)(F)F)c(F)c1 [Example 181] | 8.22
CCC(C)Nc1nc(-c2ccccn2)nc(Cl)c1-c1c(F)cc(OC)cc1F (stereo not shown) [Example 63] | 7.66
CC1CCCN1c1nc(-n2ccnn2)nc(Cl)c1-c1c(F)cc(F)cc1F (stereo not shown) [Example 76] | 8.12
COc1ccc(-c2c(Cl)nc(C(N)=NO)nc2N[C@@H](C)C(F)(F)F)c(Cl)c1 [Example 215] | 7.85
COc1cc(F)c(-c2c(Cl)nc(-n3cnc([N+](=O)[O-])n3)nc2N2CCC(C)CC2)c(F)c1 [Example 86] | 7.62
C[C@@H](Nc1nc(C(N)=NO)nc(Cl)c1-c1c(F)cc(F)cc1F)C(F)(F)F [Example 137] | 8.82

— patent US20080146593A1, “Substituted 5-Phenyl Pyrimidines I In Therapy” (Basf Aktiengesellschaft, priority 2005, published 2008)
